What all share (format): cell-based, human
The subject of assay [1] is MYB mRNA. Put plainly: RT-qPCR splicing assay, MYB canonical junction (CJ) and alternative junction (AJ) mRNA. The note with it: Homo sapiens; for AC50: increase in MYB alternative junction (AJ) mRNA, read-out: MYB AJ AC50. Put shortly: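 Following a 24-hour incubation of A673 or K562 cells with serially diluted compound (3-fold steps, highest final 10 uM), the lysates undergo cDNA synthesis plus qPCR. Canonical and alternative junctions are each quantified against PPIA, GAPDH or GUSB.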
For orientation: Real-time PCR tracks product formation cycle by cycle.

Assay [2] concerns MYB. Kind of assay: HiBiT protein abundance assay, MYB HiBiT K562 cell line. Conditions: HiBiT K562 cell line, 24 hours, top dose 10 μM; read-out: Effect on protein abundance, MYB (IC50 category). Summed up: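 Endogenous targets in K562 knock-in lines carried a HiBiT tag and were treated for 24 h at 37 °C with 10-point 3-fold dilutions (top 10 μM final, DMSO ≤0.25%). Abundance was read as lytic Nano-Glo HiBiT luminescence. IC50 came from a four-parameter logistic fit of normalized response.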
Background: The HiBiT peptide binds its large partner to form an active luciferase.

The subject of assay [3] is Target C. Put plainly: HiBiT protein abundance assay, Target C (Promega Nano-Glo HiBiT Lytic Detection System, knock-in K562 cell line). Conditions: Homo sapiens, K562, 24 h, HiBiT K562 cell line, 24 hours, top dose 10 μM; read-out: Effect on protein abundance, Target C (IC50 category). Summed up: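 HiBiT knock-in K562 cells (10,000/well) were treated for 24 h at 37 °C with a 10-point 3-fold dilution series, top final concentration 10 μM, DMSO ≤0.25%. Lytic HiBiT luminescence was read, normalized to unmodified K562 and DMSO-treated controls, and IC50 was interpolated from a four-parameter logistic fit.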

Where [4] appears, read: Table 5 panel, canonical junction qPCR, compound concentration having 50% response in CJ decrease, read-out: MYB IC50 (decrease in CJ mRNA levels).
Where [5] appears, read: decrease in MYB canonical junction (CJ) mRNA, RT-qPCR, read-out: MYB CJ IC50.

Each structure is given as a SMILES string. Read-outs that look alike come from different tables or passages of the source. Some results are limits rather than exact numbers.

By IC50 is commonly meant the point on the concentration scale where inhibition reaches its midpoint. Usually AC50 stands for the concentration at which the activity in the assay is half-maximal. `Cn1cc2cc(-c3cc(F)c4c(=O)n(C5CCNC6(CC6)C5)ccc4c3)cc(F)c2n1` (stereo not drawn) [Compound 412]: the IC50 in assay [1] (setting [4]), in assay [1] (setting [5]), in assay [2] and in assay [3] was under 100 nM in each case. In assay [1] (RT-qPCR), the AC50 is under 100 nM.
Regarding `Cc1cn2cc(-c3cc(F)c4c(=O)n(C5CCNC6(CC6)C5)ccc4c3)cc(Cl)c2n1` (stereo not drawn) [Compound 413, 2-{4-azaspiro[2.5]octan-7-yl}-6-{8-chloro-2-methylimidazo[1,2-a]pyridin-6-yl}-8-fluoroisoquinolin-1-one], the IC50 in assay [1] (setting [4]), in assay [1] (setting [5]), in assay [2] and in assay [3] was under 100 nM in each case. The AC50 in assay [1] (RT-qPCR) is under 100 nM.
With `Cn1cc2cc(-c3cc(F)c4c(=O)n(C5CCNC6(CC6)C5)ccc4c3)c(O)cc2n1` (stereo not drawn) [Compound 414, 2-{4-azaspiro[2.5]octan-7-yl}-8-fluoro-6-(6-hydroxy-2-methylindazol-5-yl)isoquinolin-1-one], the IC50 is 1000 to 10000 nM in assay [1] (setting [4]), 1000 to 10000 nM in assay [1] (setting [5]), 1000 to 10000 nM in assay [2] and over 10000 nM in assay [3]. Further, the AC50 in assay [1] (RT-qPCR) fell in the range of 1000 to 10000 nM.
Take `Cc1cc(-c2cc(F)c3c(=O)n(C4CCNC5(CC5)C4)ccc3c2)cc2cn(C)nc12` (stereo not drawn) [Compound 415, 2-{4-azaspiro[2.5]octan-7-yl}-6-(2,7-dimethylindazol-5-yl)-8-fluoroisoquinolin-1-one]: the IC50 in assay [1] (setting [4]), in assay [1] (setting [5]), in assay [2] and in assay [3] was under 100 nM in each case. Further, the AC50 in assay [1] (RT-qPCR) was under 100 nM.
In the case of `Cc1cn2cc(-c3cc(F)c4c(=O)n(C5CCNC6(CC6)C5)ccc4c3)cc(C)c2n1` (stereo not drawn) [Compound 416, 2-{4-azaspiro[2.5]octan-7-yl}-6-{2,8-dimethylimidazo[1,2-a]pyridin-6-yl}-8-fluoroisoquinolin-1-one], the IC50 in assay [1] (setting [4]), in assay [1] (setting [5]), in assay [2] and in assay [3] was under 100 nM in each case. Also, the AC50 in assay [1] (RT-qPCR) was under 100 nM.
As for `Cc1nc2c(F)cc(-c3cc(F)c4c(=O)n(C5CCNC6(CC6)C5)ccc4c3)cc2o1` (stereo not drawn) [Compound 417, 2-{4-azaspiro[2.5]octan-7-yl}-8-fluoro-6-(4-fluoro-2-methyl-1,3-benzoxazol-6-yl)isoquinolin-1-one], the IC50 in assay [1] (setting [4]), in assay [1] (setting [5]), in assay [2] and in assay [3] was under 100 nM in each case. Besides, the AC50 in assay [1] (RT-qPCR) was under 100 nM.
In the case of `Cc1nc2c(C)cc(-c3cc(F)c4c(=O)n(C5CCNC6(CC6)C5)ccc4c3)cc2o1` (stereo not drawn) [Compound 418, 2-{4-azaspiro[2.5]octan-7-yl}-6-(2,4-dimethyl-1,3-benzoxazol-6-yl)-8-fluoroisoquinolin-1-one], the IC50 in assay [1] (setting [4]), in assay [1] (setting [5]), in assay [2] and in assay [3] was under 100 nM in each case. In assay [1] (RT-qPCR), the AC50 was under 100 nM.
Consider `Cc1c(O)c(-c2cc(F)c3c(=O)n(C4CCNC5(CC5)C4)ccc3c2)cc2cn(C)nc12` (stereo not drawn) [Compound 419, 2-{4-azaspiro[2.5]octan-7-yl}-8-fluoro-6-(6-hydroxy-2,7-dimethylindazol-5-yl)isoquinolin-1-one], for which the IC50 in assay [1] (setting [4]) was 1000 to 10000 nM; in assay [1] (setting [5]), 1000 to 10000 nM; in assay [2], 1000 to 10000 nM; in assay [3], over 10000 nM. For the same molecule, in assay [1] (RT-qPCR), the AC50 was in the range of 1000 to 10000 nM.
With `Cn1cc2cc(-c3cc(F)c4c(=O)n(C5CCNC6(CC6)C5)ccc4c3)c(O)c(F)c2n1` (stereo not drawn) [Compound 420, 2-{4-azaspiro[2.5]octan-7-yl}-8-fluoro-6-(7-fluoro-6-hydroxy-2-methylindazol-5-yl)isoquinolin-1-one], the IC50 lay in the range of 100 to 1000 nM in assay [1] (setting [4]), 100 to 1000 nM in assay [1] (setting [5]), 100 to 1000 nM in assay [2] and 1000 to 10000 nM in assay [3]. In assay [1] (RT-qPCR), the AC50 lay in the range of 100 to 1000 nM.
In the case of `Cc1cn2cc(-c3cc(F)c4c(=O)n(C5CCNC6(CC6)C5)ccc4c3)c(O)c(C)c2n1` (stereo not drawn) [Compound 421, 2-{4-azaspiro[2.5]octan-7-yl}-8-fluoro-6-{7-hydroxy-2,8-dimethylimidazo[1,2-a]pyridin-6-yl}isoquinolin-1-one], the IC50 in assay [1] (setting [4]), in assay [1] (setting [5]), in assay [2] and in assay [3] was over 10000 nM each time. For the same molecule, in assay [1] (RT-qPCR), the AC50 was over 10000 nM.
Consider `Cc1cn2nc(-c3cc(C)c4c(=O)n(C5CCNC6(CC6)C5)ncc4c3)cc(C)c2n1` (stereo not drawn) [Compound 423, 6-(2,8-dimethylimidazo[1,2-b]pyridazin-6-yl)-8-methyl-2-(4-azaspiro[2.5]octan-7-yl)phthalazin-1(2H)-one], for which the IC50 in assay [1] (setting [4]), in assay [1] (setting [5]), in assay [2] and in assay [3] was under 100 nM in each case. The AC50 in assay [1] (RT-qPCR) was under 100 nM.
With `Cc1cn2cc(-c3cc(F)c4c(=O)n(C5CCNC6(CC6)C5)ccc4c3)ncc2n1` (stereo not drawn) [Compound 428, 8-fluoro-6-(2-methylimidazo[1,2-a]pyrazin-6-yl)-2-(4-azaspiro[2.5]octan-7-yl)isoquinolin-1(2H)-one], the IC50 was 100 to 1000 nM in assay [1] (setting [4]), 100 to 1000 nM in assay [1] (setting [5]), 100 to 1000 nM in assay [2] and 1000 to 10000 nM in assay [3]. Also, in assay [1] (RT-qPCR), the AC50 lay within 100 to 1000 nM.
In the case of `Cc1cc(-c2cc(F)c3c(=O)n(C4CCNC5(CC5)C4)ccc3c2)cc2c1nc(C)n2C` (stereo not drawn) [Compound 429], the IC50 in assay [1] (setting [4]) was over 10000 nM; in assay [1] (setting [5]), over 10000 nM; in assay [2] it was 1000 to 10000 nM; in assay [3], 100 to 1000 nM. In assay [1] (RT-qPCR), the AC50 was over 10000 nM.
For the molecule `Cc1nc2c(F)cc(-c3cc(F)c4c(=O)n(C5CCNC6(CC6)C5)ccc4c3)cc2n1C` (stereo not drawn) [Compound 430, 8-fluoro-6-(4-fluoro-1,2-dimethyl-1H-benzo[d]imidazol-6-yl)-2-(4-azaspiro[2.5]octan-7-yl)isoquinolin-1(2H)-one], the IC50 in assay [1] (setting [4]) is over 10000 nM; in assay [1] (setting [5]), over 10000 nM; in assay [2], 1000 to 10000 nM; in assay [3], over 10000 nM. Besides, the AC50 in assay [1] (RT-qPCR) was over 10000 nM.
For the molecule `Cc1cc(-c2cc(F)c3c(=O)n(C4CCNC5(CC5)C4)ccc3c2)nc2cn(C)nc12` (stereo not drawn) [Compound 431], the IC50 in assay [1] (setting [4]), in assay [1] (setting [5]), in assay [2] and in assay [3] was under 100 nM throughout. For the same molecule, the AC50 in assay [1] (RT-qPCR) was under 100 nM.
As to `Cc1cn2nc(-c3cc(O)c4c(=O)n(C5CCNC5)ccc4c3)cc(C)c2n1` (stereo not drawn) [Compound 432, 6-{2,8-dimethylimidazo[1,2-b]pyridazin-6-yl}-8-hydroxy-2-(pyrrolidin-3-yl)isoquinolin-1-one], the IC50 is under 100 nM in assay [1] (setting [4]), 100 to 1000 nM in assay [1] (setting [5]), under 100 nM in assay [2] and 1000 to 10000 nM in assay [3]. In addition, the AC50 in assay [1] (RT-qPCR) is under 100 nM.
Consider `Cc1cn2cc(-c3cc(O)c4c(=O)n(C5CCNC5)ccc4c3)cc(C#N)c2n1` (stereo not drawn) [Compound 433, 6-(8-hydroxy-1-oxo-2-(pyrrolidin-3-yl)-1,2-dihydroisoquinolin-6-yl)-2-methylimidazo[1,2-a]pyridine-8-carbonitrile], for which the IC50 in assay [1] (setting [4]) is under 100 nM; in assay [1] (setting [5]), 1000 to 10000 nM; in assay [2] it was 1000 to 10000 nM; in assay [3], over 10000 nM. In addition, the AC50 in assay [1] (RT-qPCR) was in the range of 100 to 1000 nM.
In the case of `Cc1cn2cc(-c3cc(F)c4c(=O)n(C5CCNC5)ccc4c3)cc(C#N)c2n1` (stereo not drawn) [Compound 434, 6-[8-fluoro-1-oxo-2-(pyrrolidin-3-yl)isoquinolin-6-yl]-2-methylimidazo[1,2-a]pyridine-8-carbonitrile], the IC50 in assay [1] (setting [4]) is 100 to 1000 nM; in assay [1] (setting [5]), 100 to 1000 nM; in assay [2], 1000 to 10000 nM; in assay [3], over 10000 nM. In addition, the AC50 in assay [1] (RT-qPCR) lay within 100 to 1000 nM.
For `Cc1cn2cc(-c3ccc4c(=O)n(C5CCNCC5)cc(C)c4c3)cc(F)c2n1` [Compound 440, 6-{8-fluoro-2-methylimidazo[1,2-a]pyridin-6-yl}-4-methyl-2-(piperidin-4-yl)isoquinolin-1-one], the IC50 was under 100 nM in assay [1] (setting [4]), under 100 nM in assay [1] (setting [5]), under 100 nM in assay [2] and 100 to 1000 nM in assay [3]. For the same molecule, in assay [1] (RT-qPCR), the AC50 is under 100 nM.
As to `Cc1cn2cc(-c3ccc4c(=O)n(C5CCNC5)cc(C)c4c3)cc(F)c2n1` (stereo not drawn) [Compound 441, 6-{8-fluoro-2-methylimidazo[1,2-a]pyridin-6-yl}-4-methyl-2-(pyrrolidin-3-yl)isoquinolin-1-one], the half-maximal inhibitory concentration (IC50) in assay [1] (setting [4]) was 1000 to 10000 nM; in assay [1] (setting [5]), 1000 to 10000 nM; in assay [2], 1000 to 10000 nM; in assay [3] it was over 10000 nM. The AC50 in assay [1] (RT-qPCR) was in the range of 1000 to 10000 nM.
Consider `Cc1cn2cc(-c3ccc4c(=O)n(C5CCNC5)cc(C)c4c3)cc(C#N)c2n1` (stereo not drawn) [Compound 442, 2-methyl-6-[4-methyl-1-oxo-2-(pyrrolidin-3-yl)isoquinolin-6-yl]imidazo[1,2-a]pyridine-8-carbonitrile], for which the IC50 in assay [1] (setting [4]), in assay [1] (setting [5]), in assay [2] and in assay [3] was over 10000 nM throughout. The AC50 in assay [1] (RT-qPCR) was over 10000 nM.

These data come from patent publication US20250332173A1, “COMPOUNDS AND METHODS FOR MODULATING NUCLEIC ACID SPLICING” (REMIX THERAPEUTICS INC., priority 2021, published 2025).
